Residues, ends and D or L forms follow the SMILES beside them. *: point of attachment. Stearoyl = CCCCCCCCCCCCCCCCCC(=O)*
Tests used:
[1] = Pharmacokinetics of acylated analogs in male Sprague Dawley rats after subcutaneous injection (Example 11); type: in vivo; conditions: sc, rat
Procedure: The peptides were reconstituted in saline (0.9% NaCl). Three male Sprague Dawley rats (approximately 6 weeks of age) were used per group. Subcutaneous doses were administered into the right flank of each animal […]. Following dosing, serial whole blood samples (ca. 0.3 mL) were collected from retro-orbital sinus into K2EDTA treated containers. Following each blood sample collection, samples were placed into a cooling block at 4° C. Samples were collected prior to dosing then at 15 and 30 minutes then 1, 2, 4, 6, 8 and 24 hours post dose for subcutaneous injection. Blood samples were centrifuged at 3500×rpm for 10 minutes at 4° C. and resultant plasma aspirated off into clean fully, labelled tubes. Plasma samples were snap frozen following aspiration then stored at −80° C. The peptides were extracted with acetonitrile:water (75:25, v/v) and analyzed using developed LC-MS/MS methods as described in Example 9. The limits of detection of these methods are 0.003 nmol/mL for HBD1 (1-13) with palmitic acid at the N-terminus (C16:0), 0.0008 nmol/mL for HBD1 (3-11) with palmitic acid at the N-terminus (C16:0), 0.0070 nmol/mL for HBD1 (3-11) with stearic acid at the N-terminus (C18:0), and 0.0015 nmol/mL for HBD1 (3-11) with myristic acid at the N-terminus (C14:0), HBD1 (3-11) with arachidic acid at the N-terminus (C20:0), HBD1 (3-11) with palmitic diacid at the N-terminus (C16:0-diacid), HBD1 (3-11) with palmitic acid at the C-terminus (C16:0). All values below these limits of quantification were considered as zero.

[2] = Pharmacokinetics in Göttingen minipigs after intravenous and subcutaneous injection (Example 12); type: in vivo; conditions: minipig; for Cmax: read-out: maximum concentrations (Cmax), mean; for AUC(0-t): read-out: mean total exposure (AUC0-t); for Tmax: read-out: times post dose for maximum concentration (Tmax), median
Procedure: The peptide was reconstituted in saline (0.9% NaCl). Three Göttingen minipigs (approximately 8-10 months of age) were used per group. Intravenous doses were administered into an ear vein at the dose of 0.5 μmol net peptide/kg. Subcutaneous doses were administered into the right flank of each animal, also at the dose of 0.5 μmol net peptide/kg. Following dosing, serial whole blood samples (ca. 0.25 mL) were collected from a jugular vein into K2EDTA treated containers. Following each blood sample collection, samples were placed into a cooling block at 4° C. Samples were collected prior to dosing then at 5 and 30 minutes then 1, 2, 4, 8, 25, 48, 72 and 96 hours post dose for intravenous injection and at 15 and 30 minutes then 1, 2, 4, 8, 25, 48, 72 and 96 hours post dose for subcutaneous injection.
Blood samples were centrifuged at 10000×g for 2 minutes at 4° C. and resultant plasma aspirated off into clean fully, labelled tubes. Plasma samples were snap frozen following aspiration then stored at −80° C. Peptide extraction and analysis were performed as described in Example 9. The limit of quantification of this method is 0.0015 nmol/mL. All values below this limit of quantification are considered as zero.

[3] = system: ovariectomized (OVX) rats; test: Bone biomechanical tests (lumbar vertebrae compression, femoral neck cantilever bending) in OVX rats; type: in vivo, female Sprague-Dawley rats; conditions: 3.2 mg/kg BID s.c., 6 weeks
Procedure: (§1) Effects on bone of three doses of HBD1 (3-11) with stearic acid at the N-terminus (C18:0) analog were tested in vivo in ovariectomized (OVX) rats, a recognized model for human osteoporosis, in particular postmenopausal osteoporosis. Each group included ten female Sprague-Dawley rats that were four months of age at the beginning of the in-life phase of the study. Treatment started six weeks after OVX surgery and lasted for six additional weeks. Groups were randomized before surgery according to body weight and tibial metaphysis Bone Mineral Density (BMD) as measured by peripheral quantitative computed tomography (pQCT) from Norland Stratec XCT Research SA equipment (Norland Stratec Medizintechnik, Birkenfeld, Germany).
(§2) The peptide was reconstituted in saline solution (0.9% NaCl) and administered subcutaneously twice a day at the doses of 0.8 mg/kg (low), 1.6 mg/kg (med) or 3.2 mg/kg (high) in a volume of 1 mL/kg. The control group was administered twice a day with saline by s.c. administration. Rats were weighed once a week and the volume of dosing solution administered was adjusted accordingly.
Bone biomechanical properties were determined by compression test using Instron 3343 biomechanical testing system (Instron, Norwood, Mass., USA). […]

[4] = Pharmacokinetics in male Sprague Dawley rats after intravenous and subcutaneous injection (Example 10); type: in vivo; conditions: 1 μmol net peptide/kg, rat; for Tlast (last time point with detectable peptide): listed as HBD1 (3-11) with stearic acid at the N-terminus (C18:0)
Procedure: The peptides were reconstituted in saline (0.9% NaCl). Three male Sprague Dawley rats were used per group. Intravenous doses were administered into a lateral tail vein at the dose of 1 μmol net peptide/kg. Subcutaneous doses were administered into the right flank of each animal, also at the dose of 1 μmol net peptide/kg. Following dosing, serial whole blood samples (ca. 0.25 mL) were collected from a lateral tail vein into K2EDTA treated containers. Following each blood sample collection, samples were placed into a cooling block at 4° C. Samples were collected prior to dosing then at 2, 5, 15 and 30 minutes then 1, 2, 4, 6 and 8 and 24 hours post dose for intravenous injection and at 15 and 30 minutes then 1, 2, 4, 6, 8 and 24 hours post dose for subcutaneous injection.
Blood samples were centrifuged at 10000×g for 2 minutes at 4° C. and resultant plasma aspirated off into clean fully, labelled tubes. Plasma samples were snap frozen following aspiration then stored at −80° C. Peptides were extracted and analyzed as described in Example 9. The limits of quantification of these methods were 0.001 nmol/mL for cyclic HBD1 (3-11) and HBD1 (3-11) and 0.003 nmol/mL for HBD1 (1-13). All values below these limits of quantification were considered as zero.

[5] = system: ovariectomized (OVX) rats; test: Bone μCT of proximal tibia in ovariectomized (OVX) rats after 6-week treatment; type: in vivo, female Sprague-Dawley rats; conditions: 0.8, 1.6 or 3.2 mg/kg s.c. twice a day, 6 weeks; dose-dependent
Procedure: as §1, §2
High-resolution micro-computed tomography (μCT) measurements using SkyScan 1072 or 1172 High Resolution Scanner (Bruker microCT, Kontich, Belgium) were performed ex vivo in right proximal tibia at the end of the treatment period for measuring bone volume, bone cross-sectional dimensions and bone microarchitecture. FIGS. 5A, 5B and 5C show the percent increase from OVX animals HBD1 (3-11) with stearic acid at the N-terminus (C18:0) groups for following selected parameters: Bone Volume Fraction (BV/TV; %), Trabecular number (Tb.N; mm^−1) and Connectivity Density (Conn.D; mm^−3).

[6] = Göttingen, plasma, 0.5 umol/kg, iv, 0.5 μmol/kg
[7] = Göttingen, plasma, 0.5 umol/kg, sc, 0.5 μmol/kg
[8] = male, Sprague Dawley, plasma, iv
[9] = male, Sprague Dawley, plasma, sc

peptide exposure compared among acylated peptides (in words) [1]: higher peptide exposure
Cmax [2, 6]: 6.27 µM
AUC(0-t) [2, 6]: 3.75 µM·h
Tmax [2, 6]: 0.083 h
Cmax [2, 7]: 0.29 µM
AUC(0-t) [2, 7]: 3.07 µM·h
Tmax [2, 7]: 4 h
bioavailability ([2]; Göttingen, plasma, sc, 0.5 umol/kg, read-out: mean calculated subcutaneous bioavailability relative to i.v.): 83.1%
exposure duration after subcutaneous administration ([2]; sc, 0.5 μmol/kg): up to 25 hours
Tlast (last time point with detectable peptide) ([4]; iv): 8 h
bioavailability ([4]; male, Sprague Dawley, plasma, subcutaneous, sc vs iv, read-out: F (bioavailability)): 52%
AUC(0-t) [4, 8]: 9.28 µM·h
Cmax [4, 8]: 10.2 µM
Tmax [4, 8]: 0.033 h
AUC(0-t) [4, 9]: 4.81 µM·h
Cmax [4, 9]: 0.54 µM
Tmax [4, 9]: 4 h
Tlast (last time point with detectable peptide) ([4]; sc): 8 h
SMILES: CCCCCCCCCCCCCCCCCC(=O)N[C@@H](Cc1c[nH]cn1)C(=O)N[C@@H](CC(C)C)C(=O)NCC(=O)N[C@@H](CC(C)C)C(=O)N[C@@H](CCC(=O)O)C(=O)N[C@@H](CCC(=O)O)C(=O)N1CCC[C@H]1C(=O)N[C@@H](CCCCN)C(=O)N[C@@H](CCCCN)C(=O)O [SEQ ID NO: 73, C18:0-HLGLEEPKK] (Stearoyl-HLGLEEPKK-OH; C-terminus assumed)
biomechanical properties of femoral neck (load at break point) [3]: improved
biomechanical properties of lumbar vertebrae (maximal load, energy absorption at maximal load, stress at maximal load) [3]: improved
Bone Volume Fraction (BV/TV) at tibial metaphysis vs OVX vehicle [5]: increased
Connectivity Density (Conn.D) at tibial metaphysis vs OVX vehicle [5]: increased
Trabecular number (Tb.N) at tibial metaphysis vs OVX vehicle [5]: increased
